{"source": "patent US6344179B1", "about": "“Fluoralkenyl nortropanes” (Emory University, priority 1999, dated 2002)", "key": {"human SERT": {"target": "T1, human SERT (Homo sapiens, UniProt P31645)", "T1 construct": "expressed in transfected cells", "T1 sequence (P31645 whole entry)": "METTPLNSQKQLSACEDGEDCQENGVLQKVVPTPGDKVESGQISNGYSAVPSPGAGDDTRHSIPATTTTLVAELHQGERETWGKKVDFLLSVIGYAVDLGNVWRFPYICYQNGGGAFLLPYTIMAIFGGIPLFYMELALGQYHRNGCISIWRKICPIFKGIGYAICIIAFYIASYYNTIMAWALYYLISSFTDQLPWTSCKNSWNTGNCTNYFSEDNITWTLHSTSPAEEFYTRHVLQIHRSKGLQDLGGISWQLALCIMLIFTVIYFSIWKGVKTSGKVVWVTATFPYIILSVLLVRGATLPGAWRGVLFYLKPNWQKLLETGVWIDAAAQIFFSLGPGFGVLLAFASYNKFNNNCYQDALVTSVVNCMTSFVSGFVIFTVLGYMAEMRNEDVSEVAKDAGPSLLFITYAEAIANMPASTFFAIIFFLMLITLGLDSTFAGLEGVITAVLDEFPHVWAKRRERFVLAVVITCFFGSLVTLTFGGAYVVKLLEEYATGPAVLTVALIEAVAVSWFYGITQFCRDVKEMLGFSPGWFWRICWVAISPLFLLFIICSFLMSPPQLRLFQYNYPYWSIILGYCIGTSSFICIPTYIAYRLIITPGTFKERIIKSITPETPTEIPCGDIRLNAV", "experiment": "Competitive binding in transfected cell lines, [3H]Citalopram"}, "human DAT": {"target": "T2, human DAT (Homo sapiens, UniProt Q01959)", "T2 construct": "expressed in transfected cells", "T2 sequence (Q01959 whole entry)": "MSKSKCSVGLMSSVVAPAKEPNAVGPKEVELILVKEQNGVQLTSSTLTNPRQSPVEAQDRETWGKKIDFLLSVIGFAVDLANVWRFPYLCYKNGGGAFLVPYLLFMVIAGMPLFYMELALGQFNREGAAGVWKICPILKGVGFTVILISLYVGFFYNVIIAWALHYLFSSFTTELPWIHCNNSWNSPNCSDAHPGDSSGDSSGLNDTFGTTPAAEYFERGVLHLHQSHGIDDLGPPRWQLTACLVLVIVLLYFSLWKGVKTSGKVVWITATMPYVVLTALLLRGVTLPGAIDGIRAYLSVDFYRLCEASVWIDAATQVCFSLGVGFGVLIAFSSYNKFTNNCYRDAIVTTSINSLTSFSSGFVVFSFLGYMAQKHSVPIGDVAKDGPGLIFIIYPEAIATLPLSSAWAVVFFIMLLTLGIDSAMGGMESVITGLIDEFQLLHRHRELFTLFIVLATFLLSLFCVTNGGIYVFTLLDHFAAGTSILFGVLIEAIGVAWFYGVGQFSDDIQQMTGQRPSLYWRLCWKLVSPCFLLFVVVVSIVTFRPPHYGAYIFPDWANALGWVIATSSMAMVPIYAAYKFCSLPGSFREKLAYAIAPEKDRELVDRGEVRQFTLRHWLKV", "experiment": "Competitive binding in transfected cell lines, [3H]WIN 35428"}, "[1]": {"experiment": "In vivo regional brain tissue distribution of 18F-labeled ligands in rats", "design": "species or system Sprague Dawley rats", "conditions": "rat; for Regional uptake of radioactivity, Cerebellum / Regional uptake of radioactivity, Cortex (Cx) / Regional uptake of radioactivity, Striatum / S/Cereb (striatum to cerebellum ratio) / S/Cx (striatum to cortex ratio) / Uptake of radioactivity, Blood / Uptake of radioactivity, Brain: i.v., 18F-labeled", "source_text": "The in vivo regional brain tissue distribution of [^18F]"}, "rat brain DAT": {"target": "T3, rat brain DAT (Rattus norvegicus, UniProt P23977)", "T3 construct": "from tissue; host or cells: brain of living male Sprague Dawley rats (striatum, cortex, cerebellum dissected)", "T3 sequence (P23977 whole entry)": "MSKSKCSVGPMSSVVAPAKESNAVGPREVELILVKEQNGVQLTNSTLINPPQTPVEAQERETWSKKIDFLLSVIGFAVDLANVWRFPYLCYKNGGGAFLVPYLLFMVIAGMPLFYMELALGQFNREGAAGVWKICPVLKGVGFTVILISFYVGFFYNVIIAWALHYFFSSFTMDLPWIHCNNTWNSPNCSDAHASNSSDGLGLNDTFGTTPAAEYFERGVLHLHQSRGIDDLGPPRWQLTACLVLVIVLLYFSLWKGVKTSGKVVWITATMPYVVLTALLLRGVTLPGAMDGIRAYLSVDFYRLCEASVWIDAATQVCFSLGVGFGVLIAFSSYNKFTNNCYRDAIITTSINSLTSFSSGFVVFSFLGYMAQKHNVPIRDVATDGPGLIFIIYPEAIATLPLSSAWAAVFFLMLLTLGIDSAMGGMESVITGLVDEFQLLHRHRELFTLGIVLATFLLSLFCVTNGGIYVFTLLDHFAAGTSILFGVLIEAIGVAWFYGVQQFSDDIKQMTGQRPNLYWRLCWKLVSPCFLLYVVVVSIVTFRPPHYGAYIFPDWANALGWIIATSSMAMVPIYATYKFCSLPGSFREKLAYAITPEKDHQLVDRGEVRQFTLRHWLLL", "experiment": "In vivo specificity: RTI-113 block before the 18F ligand in rats", "conditions": "for effect of RTI-113 on uptake in the striatum: RTI-113 5 mg/kg i.v. 15 minutes prior, 60 minutes", "protocol": "To determine the in vivo specificity of FBNT analogs [^18F] […] 6a, 6d and 6e. The rats were sacrificed 60 minutes after injection of [^18F] […] 6a, 6d and 6e, in the DAT transporter rich striatum."}, "striatal DAT": {"test_system": "striatal DAT", "experiment": "PET imaging in awake rhesus monkeys", "type": "in vivo, rhesus monkey", "protocol": "The regional kinetics of [^18F] […] Both [^18F] […] [^18F] […] The peak uptake ratio of striatumwcerebellum was 4:1 at 20 minutes for [^18F] […] 6d. The in vivo ratio of [1^18F] […] FECNT, 5:1. [^18F]"}, "[2]": {"target": "T4, norepinephrine transporter (Homo sapiens, UniProt P23975)", "T4 construct": "expressed in transfected cells", "T4 sequence (P23975 whole entry)": "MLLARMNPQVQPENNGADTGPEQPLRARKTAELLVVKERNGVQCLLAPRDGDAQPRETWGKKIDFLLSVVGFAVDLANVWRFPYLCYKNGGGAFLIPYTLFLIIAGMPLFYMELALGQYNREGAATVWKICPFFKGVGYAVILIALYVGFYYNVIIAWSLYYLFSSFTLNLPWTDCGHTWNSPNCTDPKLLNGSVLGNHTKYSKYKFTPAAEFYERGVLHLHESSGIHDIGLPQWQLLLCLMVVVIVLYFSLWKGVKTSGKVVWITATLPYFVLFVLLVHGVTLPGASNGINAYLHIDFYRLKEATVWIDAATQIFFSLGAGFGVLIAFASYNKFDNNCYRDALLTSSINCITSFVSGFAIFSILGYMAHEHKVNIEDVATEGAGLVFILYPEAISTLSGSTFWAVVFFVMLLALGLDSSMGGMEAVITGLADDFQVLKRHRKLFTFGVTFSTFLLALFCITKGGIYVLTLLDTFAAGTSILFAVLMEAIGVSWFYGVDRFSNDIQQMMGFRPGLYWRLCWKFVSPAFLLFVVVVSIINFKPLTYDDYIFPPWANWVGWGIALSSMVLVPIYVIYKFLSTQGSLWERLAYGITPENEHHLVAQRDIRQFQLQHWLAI", "experiment": "Competitive binding in transfected cell lines, [3H]Nisoxetine"}, "[3]": {"conditions": "at 60 minutes compared to 5 minutes post injection"}, "[4]": {"conditions": "at 120 minutes compared to 5 minutes post injection"}, "[5]": {"conditions": "[3H]WIN 35428 as reference, cells transfected with human DAT, read-out: DAT, Ki"}, "[6]": {"conditions": "[3H]Nisoxetine, transfected cell lines, read-out: NET, Ki"}, "[7]": {"conditions": "[3H]Citalopram, cells transfected with human SERT, read-out: 5-HTT, Ki"}, "[8]": {"conditions": "60 min, 5 mg/kg RTI-113 i.v. 15 minutes prior"}}, "note": "Where “and” joins values, the source holds several entries; their conditions need not be identical. Identical values can stand only once. Like-named read-outs stand apart in the source and are kept apart here."}
{"compound": "COC(=O)[C@H]1[C@@H](c2ccc(I)cc2)C[C@@H]2CC[C@H]1N2C/C=C/CF", "note": "[6c, N-((E)-4-fluorobut-2-en-1-yl)-2β-carbomethoxy-3β-(4-iodophenyl)nortropane]", "values": [{"measurement": "Ki", "setting": "human SERT", "value": 0.21, "unit": "nM"}, {"measurement": "Ki", "setting": "human DAT", "value": 0.17, "unit": "nM"}]}
{"compound": "COC(=O)[C@H]1[C@@H](c2ccc(F)cc2)C[C@@H]2CC[C@H]1N2C/C=C/CF", "note": "[6e, N-((E)-4-fluorobut-2-en-1-yl)-2β-carbomethoxy-3β-(4-fluorophenyl)nortropane]", "values": [{"measurement": "clearance from striatal tissue", "setting": "[1]; [3]", "value": 70, "unit": "%"}, {"measurement": "clearance from striatal tissue", "setting": "[1]; [4]", "value": 85, "unit": "%"}, {"measurement": "effect of RTI-113 on uptake in the striatum", "setting": "rat brain DAT", "value": "significantly blocked"}, {"measurement": "time at which transient equilibrium in the striatum was reached", "setting": "striatal DAT; awake rhesus monkey, post injection", "value": "30 min and 20 min"}, {"measurement": "early transient equilibrium at the striatal DAT", "setting": "striatal DAT; awake rhesus monkeys, PET", "value": "achieved an early transient equilibrium"}, {"measurement": "Ki", "setting": "human DAT; [5]", "value": 1.7, "unit": "nM"}]}
{"compound": "COC(=O)[C@H]1[C@@H](c2ccc(F)cc2)C[C@@H]2CC[C@H]1N2C/C=C/I", "note": "[Altropane, reference compound]", "values": [{"measurement": "Ki", "setting": "[2]; [6]", "value": "> 10000", "unit": "nM"}, {"measurement": "Ki", "setting": "human SERT; [7]", "value": 55.4, "unit": "nM"}, {"measurement": "Ki", "setting": "human DAT; [5]", "value": 0.78, "unit": "nM"}]}
{"compound": "COC(=O)[C@H]1[C@@H](c2ccc(Br)cc2)C[C@@H]2CC[C@H]1N2C/C=C/CF", "note": "[6b, N-((E)-4-=fluorobut-2-en-1-yl)-2β-carbomethoxy-3β-4-(4-bromophenyl)nortropane]", "values": [{"measurement": "Ki", "setting": "[2]", "value": 91, "unit": "nM"}, {"measurement": "Ki", "setting": "human SERT", "value": 0.85, "unit": "nM"}]}
{"compound": "COC(=O)[C@H]1[C@@H](c2ccc(Cl)cc2)C[C@@H]2CC[C@H]1N2C/C=C\\CF", "note": "[6f, N-((Z)-4-fluorobut-2-en-1-yl)-2β-carbomethoxy-3β-(4-chlorophenyl) nortropane]", "values": [{"measurement": "initial uptake in striatum and cerebellum", "setting": "striatal DAT; awake rhesus monkeys", "value": "high initial uptake in the striatum and very little uptake in the cerebellum"}]}
{"compound": "COC(=O)[C@H]1[C@@H](c2ccc(Cl)cc2)C[C@@H]2CC[C@H]1N2C/C=C/I", "note": "[MMG/142, IPT, reference compound]", "values": [{"measurement": "Ki", "setting": "[2]", "value": 48.7, "unit": "nM"}, {"measurement": "Ki", "setting": "human SERT", "value": 4.9, "unit": "nM"}, {"measurement": "Ki", "setting": "human DAT", "value": 1.16, "unit": "nM"}]}
{"compound": "N-((E)-4-fluorobut-2-en-1-yl)-2β-carbomethoxy-3β-phenylnortropane [6a]", "values": [{"measurement": "Ki", "setting": "[2]; [6]", "value": "> 10000", "unit": "nM"}, {"measurement": "clearance from striatal tissue", "setting": "[1]; [3]", "value": 75, "unit": "%"}, {"measurement": "clearance from striatal tissue", "setting": "[1]; [4]", "value": 90, "unit": "%"}, {"measurement": "Regional uptake of radioactivity, Cerebellum", "setting": "[1]; 5 min", "value": 0.55, "unit": "% dose/g"}, {"measurement": "Regional uptake of radioactivity, Cortex (Cx)", "setting": "[1]; 5 min", "value": 0.84, "unit": "% dose/g"}, {"measurement": "Regional uptake of radioactivity, Striatum", "setting": "[1]; 5 min", "value": 1.25, "unit": "% dose/g"}, {"measurement": "S/Cereb (striatum to cerebellum ratio)", "setting": "[1]; 5 min", "value": 2.27}, {"measurement": "S/Cx (striatum to cortex ratio)", "setting": "[1]; 5 min", "value": 1.49}, {"measurement": "Uptake of radioactivity, Blood", "setting": "[1]; 5 min", "value": 0.22, "unit": "% dose/g"}, {"measurement": "Uptake of radioactivity, Brain", "setting": "[1]; 5 min", "value": 0.58, "unit": "% dose/g"}, {"measurement": "Regional uptake of radioactivity, Cerebellum", "setting": "[1]; 30 min", "value": 0.12, "unit": "% dose/g"}, {"measurement": "Regional uptake of radioactivity, Cortex (Cx)", "setting": "[1]; 30 min", "value": 0.19, "unit": "% dose/g"}, {"measurement": "Regional uptake of radioactivity, Striatum", "setting": "[1]; 30 min", "value": 0.36, "unit": "% dose/g"}, {"measurement": "S/Cereb (striatum to cerebellum ratio)", "setting": "[1]; 30 min", "value": 3.0}, {"measurement": "S/Cx (striatum to cortex ratio)", "setting": "[1]; 30 min", "value": 1.89}, {"measurement": "Uptake of radioactivity, Blood", "setting": "[1]; 30 min", "value": 0.15, "unit": "% dose/g"}, {"measurement": "Uptake of radioactivity, Brain", "setting": "[1]; 30 min", "value": 0.13, "unit": "% dose/g"}, {"measurement": "Regional uptake of radioactivity, Cerebellum", "setting": "[1]; 60 min", "value": 0.09, "unit": "% dose/g"}, {"measurement": "Regional uptake of radioactivity, Cortex (Cx)", "setting": "[1]; 60 min", "value": 0.13, "unit": "% dose/g"}, {"measurement": "Regional uptake of radioactivity, Striatum", "setting": "[1]; 60 min", "value": 0.25, "unit": "% dose/g"}, {"measurement": "S/Cereb (striatum to cerebellum ratio)", "setting": "[1]; 60 min", "value": 2.78}, {"measurement": "S/Cx (striatum to cortex ratio)", "setting": "[1]; 60 min", "value": 1.92}, {"measurement": "Uptake of radioactivity, Blood", "setting": "[1]; 60 min", "value": 0.11, "unit": "% dose/g"}, {"measurement": "Uptake of radioactivity, Brain", "setting": "[1]; 60 min", "value": 0.09, "unit": "% dose/g"}, {"measurement": "Regional uptake of radioactivity, Cerebellum", "setting": "[1]; 120 min", "value": 0.07, "unit": "% dose/g"}, {"measurement": "Regional uptake of radioactivity, Cortex (Cx)", "setting": "[1]; 120 min", "value": 0.09, "unit": "% dose/g"}, {"measurement": "Regional uptake of radioactivity, Striatum", "setting": "[1]; 120 min", "value": 0.13, "unit": "% dose/g"}, {"measurement": "S/Cereb (striatum to cerebellum ratio)", "setting": "[1]; 120 min", "value": 1.86}, {"measurement": "S/Cx (striatum to cortex ratio)", "setting": "[1]; 120 min", "value": 1.86}, {"measurement": "Uptake of radioactivity, Blood", "setting": "[1]; 120 min", "value": 0.07, "unit": "% dose/g"}, {"measurement": "Uptake of radioactivity, Brain", "setting": "[1]; 120 min", "value": 0.07, "unit": "% dose/g"}, {"measurement": "Regional uptake of radioactivity, Cerebellum", "setting": "rat brain DAT; [8]", "value": 0.09, "unit": "% dose/g"}, {"measurement": "Regional uptake of radioactivity, Cortex (Cx)", "setting": "rat brain DAT; [8]", "value": 0.10, "unit": "% dose/g"}, {"measurement": "Regional uptake of radioactivity, Striatum", "setting": "rat brain DAT; [8]", "value": 0.11, "unit": "% dose/g"}, {"measurement": "S/Cereb (striatum to cerebellum ratio)", "setting": "rat brain DAT; [8]", "value": 1.22}, {"measurement": "S/Cx (striatum to cortex ratio)", "setting": "rat brain DAT; [8]", "value": 1.10}, {"measurement": "Uptake of radioactivity, Blood", "setting": "rat brain DAT; [8]", "value": 0.12, "unit": "% dose/g"}, {"measurement": "Uptake of radioactivity, Brain", "setting": "rat brain DAT; [8]", "value": 0.07, "unit": "% dose/g"}, {"measurement": "effect of RTI-113 on uptake in the striatum", "setting": "rat brain DAT", "value": "significantly blocked"}, {"measurement": "Ki", "setting": "human SERT; [7]", "value": 102, "unit": "nM"}, {"measurement": "retention of radioactivity in the striatum", "setting": "striatal DAT; awake rhesus monkey, PET images", "value": "no visible retention of radioactivity in the striatum"}, {"measurement": "selectivity for DAT over SERT", "setting": "human DAT; from binding in transfected cells", "value": 14, "unit": "times"}, {"measurement": "selectivity for DAT", "setting": "human DAT; in vitro competitive binding", "value": "very high selectivity"}]}
